The source of these data is publication PMC11091220, “Metabolism-driven in vitro/in vivo disconnect of an oral ERɑ VHL-PROTAC” (Communications Biology, 2024).

One data set has as its target T1, ERα (Homo sapiens, UniProt P03372).
T1 construct: endogenous in cells; host or cells: MCF7 (also MCF7 engineered to express Cas9)
T1 sequence (P03372 1-595): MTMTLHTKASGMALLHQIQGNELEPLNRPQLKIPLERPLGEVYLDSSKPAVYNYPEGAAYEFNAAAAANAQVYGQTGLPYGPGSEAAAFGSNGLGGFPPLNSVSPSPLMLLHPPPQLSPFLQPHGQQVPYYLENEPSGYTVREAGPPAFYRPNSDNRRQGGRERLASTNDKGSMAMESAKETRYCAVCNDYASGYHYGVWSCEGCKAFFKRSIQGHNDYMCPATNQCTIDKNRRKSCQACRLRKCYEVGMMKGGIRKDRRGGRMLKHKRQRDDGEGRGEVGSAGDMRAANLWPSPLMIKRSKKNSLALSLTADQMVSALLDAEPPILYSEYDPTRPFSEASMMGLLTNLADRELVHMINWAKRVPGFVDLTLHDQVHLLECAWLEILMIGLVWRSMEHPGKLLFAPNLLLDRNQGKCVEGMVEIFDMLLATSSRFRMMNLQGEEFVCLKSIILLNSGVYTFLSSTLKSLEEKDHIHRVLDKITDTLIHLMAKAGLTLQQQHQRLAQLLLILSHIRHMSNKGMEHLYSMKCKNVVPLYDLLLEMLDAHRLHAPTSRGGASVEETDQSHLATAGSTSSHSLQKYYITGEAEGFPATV
Nature of the data set: Western blot analysis of ERα in MCF7 cells (dose response, MG132, VHL ligand and cpd 8 competition). Format: cell-based. The following applies: Figure 6f, read-out: ERa % of control. (A western blot detects proteins with antibodies after separation by electrophoresis.)

Data set [1] in a line: Solution NMR hydrogen-bond donor shielding (A-NMR, temperature-dependent shift). The format is physicochemical. Conditions: N-terminal amide HBD of (S,R,S)-AHPC. An excerpt: 1. Supplementary Note 1: 3D Conformer of AZ’6421 (5) free in solution
PROTACs are prone to intramolecular interactions that can substantially modify their drug-like properties.1 Here we used solution NMR spectroscopy to determine the 3D conformer of 5 free in solution. Initially, water/DMSO mixtures were utilised to enhance solubility of these highly lipophilic compounds in a relevant protic solvent. However, The 1D 1H-NMR signals of 5 in a mixture of DMSO […]
pure DMSO was used for simplicity. By two 1D 1H-NMR based methods A-NMR2 and temperature- […]
values are both indicative of HBD shielding, whereas the benzyl-amide NH donor of the VHL binding motif and the indole NH in the ERα binding substructure show values characteristic of solvent exposure. By 2D rotating-frame nuclear Overhauser effect (NOE) and 1H-13C long-range correlation (13C-HSQMBC) NMR spectroscopy we determined distance and tortional angle restraints for 3D structure calculation showing an intra-molecular H-bond to the ether oxygen proximal to the N-terminus of (S,R,S)-AHPC. Deletion of this ether oxygen from the N-terminus of (S,R,S)-AHPC produces a large chemical change of 0.6 ppm for the NH donor, whereas most other 1H signals remain unchanged (Figure S3). […]

The test system of a further data set is uterus. The experiment in a line: Immature female rat model, uterine weight and histology. Format: in vivo. The following applies: for Uterine weight normalised to body weight (% vehicle): individual animals, listed as AZ'6421. The text has this:
Some endocrine therapies, such as tamoxifen, have been reported to display weak agonistic activity in the endometrium due to altered cofactor recruitment and subsequent activation of gene transcription. We therefore sought to test whether AZ’6421 was a complete antagonist or could act as a partial agonist, in both in vitro and in vivo models. […] Plasma samples were taken 4 hr after the 4th dose, at the same time as the uterus was weighed and sectioned for H&E staining. To further explore whether AZ’6421 may be acting as an agonist in vivo, morphological changes of the uterine were examined: uterine horns were formalin-fixed paraffin-embedded, stained with haematoxylin and eosin and then transverse sections of uterus examined.

Another data set relates to CAMA1 cells. Nature of the data set: Cell proliferation assay (Sytox Green), CAMA1. Format: cell-based. The following applies: Homo sapiens, CAMA-1, 144 h; CAMA1, 6 days; read-out: growth inhibition IC50. On the procedure:
Cell proliferation was assessed by measuring live cell numbers using the Sytox Green assay. MCF7 and CAMA1 cells were seeded in 96-well clear-bottom black microplates (Costar) at 4x10^3 and 8x10^3 cells per well, respectively, based on the doubling time of each cell line. Plates were incubated at 37 °C, 5% CO2 for 24 hours prior to being treated with DMSO, AZ’6421 or fulvestrant in a 10-point concentration range, with a final DMSO concentration of 0.1%. A single plate was left untreated, designated a Day 0 plate. The number of live cells was determined at Day 0 and Day 7 using the Sytox green assay. Briefly, 5 mM Sytox green nucleic acid dye (Invitrogen) was diluted 1:2500 in 500 mM tris-buffered saline (TBS) with ethylenediaminetetraacetic acid (EDTA) and 7 μL was added per well. Plates were then incubated in the dark at room temperature for 1 hour and the number of green cells in each well (dead cells) was measured using an Acumen Explorer high-throughput cell imager (TTP Labtech). Next, 14 μL of 0.25% w/v Saponin in TBS/EDTA solution was added overnight to permeabilize the cells, permitting a total cell count. The number of live cells was calculated by subtracting the dead cell count from the total cell count. The data obtained were then used to perform curve fitting analysis using GraphPad Prism. Average cell counts from the Day 0 plate were used to determine 0% cell growth. […]

pIC50: −log10 of the molar value. “And” between values parts separate entries of the source, which are not always exact repeats. Identical values can stand only once.

What is called pIC50 is −log10 of the IC50, conventionally taken in molar units.

In the case of `C[C@@H]1Cc2c([nH]c3ccccc23)[C@@H](c2c(F)cc(OCCC(=O)O)cc2F)N1CC(C)(C)F` [Compound 8], the remaining activity at 0.001 µM on ERα (1 nM) is 51.3%. On ERα (10 nM), the remaining activity at 0.01 µM stood at 51.6%. For the same molecule, the remaining activity at 0.03 µM on ERα (30 nM) stood at 47.7%. Also, the remaining activity at 0.1 µM at ERα (100 nM) was 29.2%. Moreover, at ERα (300 nM), the remaining activity at 0.3 µM worked out at 46.3%. For the same molecule, on ERα (1000 nM), the remaining activity at 1 µM was 42%.
Take `Cc1ncsc1-c1ccc(CNC(=O)[C@@H]2C[C@@H](O)CN2C(=O)[C@@H](NC(=O)COCCCOCCCOc2cc(F)c([C@@H]3c4[nH]c5ccccc5c4C[C@@H](C)N3CC(C)(C)F)c(F)c2)C(C)(C)C)cc1` [Compound 5]: the A-NMR value in data set [1] was determined as 0.03. In addition, the temperature-dependent perturbation in data set [1] (DMSO) was -2.6 ppb/K. Besides, the “Uterine weight normalised to body weight (% vehicle)” value in the data set with uterus (30 mg/kg BID) was 100.01% and 167.09% and 162.21% and 134.02% and 93.04%; in the data set on uterus (100 mg/kg BID), 147.05% and 110.41% and 107.36% and 113.51% and 133.84%. Further, the uterine weight result in the data set on uterus (30 and 100 mg/kg, immature female rat, 4 days) was “trend of increased uterine weight”. In the data set with uterus (immature female rat, 4 days dosing), the “uterine epithelium morphology (H&E)” value is on record as “tall columnar uterine epithelium”. Further, the pIC50 in the data set on CAMA1 cells was 9.70.
